For data set [1] the following is noted: human gut metagenome, 24 h, 2 µM.
The conditions of data set [2]: human gut metagenome, 24 h, 2 µM. This is another data set of the same source.
The nature of data set [3]: The drug is tested on WLS-027 corresponding to human gut metagenome with ENA study accession number: PRJEB37062 and ENA sample accession number: ERS12561744 for biotransformation under anaerobic condition. The drug concentrations were measured over 9 timepoints collected between 0 and 24 hours of incubation by liquid-chromatography-coupled mass spectrometry (LC–MS). The settings on record: 2 µM.

Data set [4] can be described thus: The drug is tested on Z-001 corresponding to mouse gut metagenome with ENA study accession number: PRJEB37062 and ENA sample accession number: ERS12561801 for biotransformation under anaerobic condition. The drug concentrations were measured over 9 timepoints collected between 0 and 24 hours of incubation by liquid-chromatography-coupled mass spectrometry (LC–MS). The settings on record: 2 µM.

The nature of data set [5]: The drug is tested on WLS-077 corresponding to human gut metagenome with ENA study accession number: PRJEB37062 and ENA sample accession number: ERS12561750 for biotransformation under anaerobic condition. The drug concentrations were measured over 9 timepoints collected between 0 and 24 hours of incubation by liquid-chromatography-coupled mass spectrometry (LC–MS). The settings on record: 2 µM.

The conditions of data set [6]: human gut metagenome, 24 h, 2 µM. The source holds these as a separate data set.
The conditions of data set [7]: human gut metagenome, 24 h, 2 µM. The source holds these as a separate data set.
Data set [8] can be described thus: The drug is tested on Z-030 corresponding to mouse gut metagenome with ENA study accession number: PRJEB37062 and ENA sample accession number: ERS12561829 for biotransformation under anaerobic condition. The drug concentrations were measured over 9 timepoints collected between 0 and 24 hours of incubation by liquid-chromatography-coupled mass spectrometry (LC–MS). Particulars: 2 µM.

The conditions of data set [9]: human gut metagenome, 24 h, 2 µM. This is another data set of the same source.
Data set [10] in a line: The drug is tested on Z-020 corresponding to rabbit gut metagenome with ENA study accession number: PRJEB37062 and ENA sample accession number: ERS12561819 for biotransformation under anaerobic condition. The drug concentrations were measured over 9 timepoints collected between 0 and 24 hours of incubation by liquid-chromatography-coupled mass spectrometry (LC–MS). Particulars: 2 µM.

For data set [11] the following is noted: human gut metagenome, 24 h, 2 µM. The source holds these as a separate data set.
The nature of data set [12]: The drug is tested on Z-022 corresponding to mouse gut metagenome with ENA study accession number: PRJEB37062 and ENA sample accession number: ERS12561821 for biotransformation under anaerobic condition. The drug concentrations were measured over 9 timepoints collected between 0 and 24 hours of incubation by liquid-chromatography-coupled mass spectrometry (LC–MS). The settings on record: 2 µM.

The nature of data set [13]: The drug is tested on Z-012 corresponding to metagenome with ENA study accession number: PRJEB37062 and ENA sample accession number: ERS12561812 for biotransformation under anaerobic condition. The drug concentrations were measured over 9 timepoints collected between 0 and 24 hours of incubation by liquid-chromatography-coupled mass spectrometry (LC–MS). The settings on record: 2 µM.

For data set [14] the following is noted: human gut metagenome, 24 h, 2 µM. This is another data set of the same source.
The nature of data set [15]: The drug is tested on Z-005 corresponding to metagenome with ENA study accession number: PRJEB37062 and ENA sample accession number: ERS12561805 for biotransformation under anaerobic condition. The drug concentrations were measured over 9 timepoints collected between 0 and 24 hours of incubation by liquid-chromatography-coupled mass spectrometry (LC–MS). The settings on record: 2 µM.

Data set [16] in a line: The drug is tested on Z-027 corresponding to metagenome with ENA study accession number: PRJEB37062 and ENA sample accession number: ERS12561826 for biotransformation under anaerobic condition. The drug concentrations were measured over 9 timepoints collected between 0 and 24 hours of incubation by liquid-chromatography-coupled mass spectrometry (LC–MS). Particulars: 2 µM.

For data set [17] the following is noted: human gut metagenome, 24 h, 2 µM. This is another data set of the same source.
For data set [18] the following is noted: human gut metagenome, 24 h, 2 µM. The source holds these as a separate data set.
For data set [19] the following is noted: human gut metagenome, 24 h, 2 µM. The source holds these as a separate data set.
Data set [20] can be described thus: The drug is tested on Z-008 corresponding to metagenome with ENA study accession number: PRJEB37062 and ENA sample accession number: ERS12561808 for biotransformation under anaerobic condition. The drug concentrations were measured over 9 timepoints collected between 0 and 24 hours of incubation by liquid-chromatography-coupled mass spectrometry (LC–MS). The settings on record: 2 µM.
Also: call rule not given here.

Turning to `COc1ccc(Cc2nccc3cc(OC)c(OC)cc23)cc1OC` [PAPAVERINE], the “Bacterial Biotransformation” value is “Compound metabolized” in data set [1]; “Compound metabolized” in data set [2]; “Compound metabolized” in data set [3]; “Compound metabolized” in [4]; “Compound NOT metabolized” in data set [5]; “Compound NOT metabolized” in data set [6]. Moreover, the “Bacterial Biotransformation” value in [7] is “Compound NOT metabolized”; in data set [8] it was “Compound NOT metabolized”; in data set [9], “Compound metabolized”; in [10] it was “Compound NOT metabolized”; in data set [11], “Compound metabolized”; in [12], “Compound metabolized”. Moreover, the “Bacterial Biotransformation” value in [13] is on record as “Compound NOT metabolized”; in data set [14], “Compound metabolized”; in [15], “Compound metabolized”; in [16] it was “Compound NOT metabolized”; in data set [17] it was “Compound metabolized”; in [18], “Compound metabolized”. Besides, the “Bacterial Biotransformation” value is “Compound metabolized” in [19] and “Compound NOT metabolized” in [20].
On to `O=C1CN2Cc3c(ccc(Cl)c3Cl)N=C2N1` [ANAGRELIDE], for which the “Bacterial Biotransformation” value is given as “Compound NOT metabolized” in data set [1]; “Compound NOT metabolized” in data set [2]; “Compound NOT metabolized” in data set [3]; “Compound NOT metabolized” in data set [4]; “Compound NOT metabolized” in data set [5]; “Compound metabolized” in data set [6]. The “Bacterial Biotransformation” value in data set [7] is given as “Compound metabolized”; in data set [8] it was “Compound NOT metabolized”; in [9], “Compound NOT metabolized”; in data set [10], “Compound NOT metabolized”; in data set [11] it was “Compound metabolized”; in data set [12], “Compound metabolized”. The “Bacterial Biotransformation” value in [13] is on record as “Compound NOT metabolized”; in [14], “Compound NOT metabolized”; in data set [15] it was “Compound NOT metabolized”; in data set [16], “Compound NOT metabolized”; in [17], “Compound metabolized”; in [18], “Compound NOT metabolized”. The “Bacterial Biotransformation” value in [19] and in data set [20] was “Compound NOT metabolized” throughout.
Turning to `CN(C)C(=O)Oc1cccc([N+](C)(C)C)c1.[Br-]` [NEOSTIGMINE BROMIDE], the “Bacterial Biotransformation” value in data set [1] is “Compound NOT metabolized”; in data set [2], “Compound NOT metabolized”; in [3], “Compound NOT metabolized”; in [4] it was “Compound metabolized”; in [5], “Compound NOT metabolized”; in data set [6], “Compound NOT metabolized”. Moreover, the “Bacterial Biotransformation” value in data set [7], in data set [8], in data set [9], in data set [10], in data set [11] and in data set [12] was “Compound NOT metabolized” each time. For the same molecule, the “Bacterial Biotransformation” value in data set [13], in data set [14], in [15], in [16], in [17] and in [18] was “Compound NOT metabolized” throughout. Besides, the “Bacterial Biotransformation” value in data set [19] and in data set [20] was “Compound NOT metabolized” in each case.
As to `CC1Cc2ccccc2N1NC(=O)c1ccc(Cl)c(S(N)(=O)=O)c1` (stereo not given) [INDAPAMIDE], the “Bacterial Biotransformation” value in [1], in data set [2], in data set [3], in [4], in data set [5] and in data set [6] was “Compound NOT metabolized” each time. Moreover, the “Bacterial Biotransformation” value in [7], in data set [8], in data set [9], in [10], in data set [11] and in data set [12] was “Compound NOT metabolized” in each case. Also, the “Bacterial Biotransformation” value in [13], in [14], in data set [15], in data set [16], in data set [17] and in data set [18] was “Compound NOT metabolized” throughout. Moreover, the “Bacterial Biotransformation” value in data set [19] and in data set [20] was “Compound NOT metabolized” in each case.
Consider `CN1CCN2c3ccccc3Cc3ccccc3C2C1` (stereo not given) [MIANSERIN], for which the “Bacterial Biotransformation” value in [1], in data set [2], in data set [3], in data set [4], in data set [5] and in [6] was “Compound NOT metabolized” in each case. Further, the “Bacterial Biotransformation” value is on record as “Compound NOT metabolized” in [7]; “Compound NOT metabolized” in data set [8]; “Compound NOT metabolized” in data set [9]; “Compound NOT metabolized” in [10]; “Compound metabolized” in [11]; “Compound metabolized” in data set [12]. In addition, the “Bacterial Biotransformation” value in [13], in [14], in [15], in data set [16], in data set [17] and in [18] was “Compound NOT metabolized” each time. Moreover, the “Bacterial Biotransformation” value is given as “Compound metabolized” in data set [19] and “Compound NOT metabolized” in data set [20].
Consider `CN1CCC[C@@H]1CCO[C@](C)(c1ccccc1)c1ccc(Cl)cc1.O=C(O)/C=C/C(=O)O` [CLEMASTINE FUMARATE], for which the “Bacterial Biotransformation” value in [1] is “Compound NOT metabolized”; in data set [2], “Compound metabolized”; in data set [3], “Compound metabolized”; in data set [4] it was “Compound NOT metabolized”; in data set [5], “Compound NOT metabolized”; in [6], “Compound metabolized”. Moreover, the “Bacterial Biotransformation” value is listed as “Compound NOT metabolized” in [7]; “Compound NOT metabolized” in [8]; “Compound NOT metabolized” in data set [9]; “Compound NOT metabolized” in data set [10]; “Compound metabolized” in data set [11]; “Compound NOT metabolized” in [12]. Besides, the “Bacterial Biotransformation” value was “Compound NOT metabolized” in data set [13]; “Compound metabolized” in [14]; “Compound NOT metabolized” in data set [15]; “Compound NOT metabolized” in data set [16]; “Compound metabolized” in [17]; “Compound metabolized” in data set [18]. The “Bacterial Biotransformation” value in [19] is “Compound metabolized”; in [20], “Compound NOT metabolized”.

Values taken from ChEMBL document CHEMBL5724914, “Linking interpersonal differences in gut microbiota composition and drug biotransformation activity” (2024).
